We go through 24 compounds from patent publication US9975853B2, “Tetrahydroisoquinolinone derivatives and their use in the inhibition of the HSP70 protein” (Julius-Maximilians-Universitaet Wuerzburg, priority 2014, dated 2018).

The structures appear in SMILES notation.

The term EC50 denotes the midpoint of the concentration-response curve. By melting point is commonly meant the temperature, or range, at which the solid turns liquid.

In one data set the test system is INA-6. Kind of data set: Cell viability assay (annexin V-FITC/propidium iodide, flow cytometry) in INA-6 multiple myeloma cells. The class given is cell-based, human. The following applies: Homo sapiens, INA-6, 72 h, INA-6 multiple myeloma cells, 72 hours of treatment, viable cell fraction; mean of at least three determinations; read-out: INA-6 EC50(±sdv). The method, then: The effect of pharmacological Hsp70 inhibition on cell viability was analyzed after 72 hours of treatment in both non-malignant (mononuclear cells from the peripheral blood) and malignant lymphocytes (multiple myeloma cells). The mononuclear cells were separated from the peripheral blood of healthy donors by Ficoll-Hypaque density gradient centrifugation. The human cell line INA-6 represents a well-established model for multiple myeloma. The percentage of viable and apoptotic cell fractions was assessed using an annexin V-FITC/propidium iodide (PI) staining kit (Bender MedSystems, Vienna, Austria) according to manufacturer's instructions. In brief, cells were washed in PBS, incubated for 10 min in 100 ml binding buffer (10 mM HEPES/NaOH, pH 7.4, 140 mM NaCl, 2.5 mM CaCl2) containing 2.5 ml annexin V-FITC mix and 1 mg/ml propidium iodide (PI), subsequently diluted with 100 ml binding buffer and analyzed by flow cytometry (FACSCalibur/CELLQuest; Becton Dickinson, Heidelberg, Germany). Whereas viable cells are negative for both, annexin V-FITC and PI, early apoptotic cells show a positive annexin V-FITC staining, and cells in a late apoptotic stage which lose their membrane integrity additionally incorporate DNA-binding PI. To establish kill curves, concentrations of the tested compounds were titrated, and the measured viable cell fractions were further analyzed using the Prism Calculation Software (GraphPad Software Inc., La Jolla, USA).
In FIG. 2A Western blot analyses of caspases 9 and 3, and the caspase substrate PARP (upper panel), and viability analyses (lower panel) of INA-6 MM cells upon treatment with trans-7b for 24 hours are shown. INA-6 cells were either incubated with DMSO (as a solvent control) or with 0.6 μM of trans-7b, and additionally incubated either with DMSO or the pan-caspase inhibitor Z-VAD-FMK prior to analyses by Western or viability assessment (without Z-VAD-FMK co-treatment) by Annexin V/propidum iodide double staining. For Western analyses INA-6 cell pellets were dissolved in lysis buffer (20 mM HEPES (pH 7.9), 350 mM NaCl, 1 mM MgCl2, 0.5 mM EDTA, 0.1 mM EGTA, 1% NP40, 0.5 mM dithiothreiol (DTT), 1 mM Na3VO4, 0.1 mM PMSF and 1 μg/ml aprotinin). Lysates were cleared by centrifugation, measured by quantitative protein assay (Bio-Rad, München, Germany) and subjected to SDS gel electrophoresis. Proteins were transferred onto nitrocellulose membranes (Schleicher & Schuell, Dassel, Germany), incubated with antibodies specific for caspase 9, caspase 3 or PARP (Cell Signaling Technology, Frankfurt a.Main, Germany) according to standard procedures and visualized with secondary anti-rabbit horseradish peroxidase (HRP)-conjugated antibodies using an enhanced chemoluminescence detection system (ECL, Amersham, Freiburg, Germany). […] Annexin V/propidium iodide (PI) staining was performed using a fluorescein isothiocyanate (FITC) conjugated recombinant human annexin/propidium iodide kit (BenderMedSystems, Vienna, Austria) according to the manufacturer's instructions. INA-6 cells were washed in PBS, incubated for 15 minutes in 100 ml binding buffer (10 mM HEPES/NaOH, pH 7.4, 140 mM NaCl, 2.5 mM CaCl2) containing 2.5 mL annexin V-FITC mix and 1 mg/ml PI and analyzed by flow cytometry (FACSCalibur/CELLQuest; Becton Dickinson, Heidelberg, Germany). Whereas early apoptosis is characterized by positive annexin V-FITC staining reaction, cells in a late apoptotic stage lose their membrane integrity and additionally incorporate PI. Thus, the fraction of viable cells remains negative for both annexin V-FITC and PI. […] Based on the above described experiments also viability analyses of INA-6 in comparison with non-malignant PBMCs were performed choosing a longer incubation time (72 hours) as shown in FIG. 2B or C. Raw data of three independent experiments have been calculated to establish means, standard deviation and dose-effect curves of trans-7b.
A general note: A flow cytometer gives signals particle by particle.
On to `COc1ccc(C2C(C(=O)Nc3cccc(C)n3)c3ccccc3C(=O)N2c2ccc(OC)cc2)cc1` (stereo not drawn) [trans-7d, trans-2,3-Bis(4-methoxyphenyl)-N-(6-methylpyridin-2-yl)-1-oxo-1,2,3,4-tetrahydroisoquinoline-4-carboxamide], for which the EC50 came out at 680 nM. On the same count and under the same terms, then `Cc1cccc(NC(=O)C2c3ccccc3C(=O)N(c3ccc(F)cc3)C2c2ccc(F)cc2)n1` (stereo not drawn) [trans-7k, trans-2,3-Bis(4-fluorophenyl)-N-(6-methylpyridin-2-yl)-1-oxo-1,2,3,4-tetrahydroisoquinoline-4-carboxamide], with 6400 nM; and `COc1ccc(C2C(C(=O)Nc3cc(C)cc(C)n3)c3ccccc3C(=O)N2c2ccccc2)cc1` (stereo not drawn) [trans-7r, trans-N-(4,6-Dimethylpyridin-2-yl)-3-(4-methoxyphenyl)-1-oxo-2-phenyl-1,2,3,4-tetrahydroisoquinoline-4-carboxamide], with 340 nM. Still for that read-out and setting: the same measure for `COc1ccc([C@H]2[C@H](C(=O)O)c3ccccc3C(=O)N2c2ccc(OC)cc2)cc1` (relative stereo) [cis-6d, Sodium trans-2,3-bis(4-methoxyphenyl)-1-oxo-1,2,3,4-tetrahydroisoquinoline-4-carboxylate]: more than 100000 nM; for `COc1ccc(C2C(C(=O)N(C)C)c3ccccc3C(=O)N2c2ccc(OC)cc2)cc1` (stereo not drawn) [trans-7h, trans-2,3-Bis(4-methoxyphenyl)-N,N-dimethyl-1-oxo-1,2,3,4-tetrahydroisoquinoline-4-carboxamide]: more than 100000 nM; for `COc1ccc(C2C(C(=O)Nc3ncccn3)c3ccccc3C(=O)N2c2ccccc2)cc1` (stereo not drawn) [trans-7p, trans-3-(4-Methoxyphenyl)-1-oxo-2-phenyl-N-(pyrimidin-2-yl)-1,2,3,4-tetrahydroisoquinoline-4-carboxamide]: 200 nM.

`CNC(=O)C1c2ccccc2C(=O)N(c2ccc(OC)cc2)C1c1ccc(OC)cc1` (stereo not drawn) [trans-7g, trans-2,3-Bis(4-methoxyphenyl)-N-methyl-1-oxo-1,2,3,4-tetrahydroisoquinoline-4-carboxamide]: the EC50 stood at 7100 nM.

As for `COc1ccc(C2C(C(=O)Nc3cc(C)cc(C)c3)c3ccccc3C(=O)N2c2ccc(OC)cc2)cc1` (stereo not drawn) [trans-7j, trans-N-(3,5-Dimethylphenyl)-2,3-bis(4-methoxyphenyl)-1-oxo-1,2,3,4-tetrahydroisoquinoline-4-carboxamide], the EC50 was 950 nM. Still for that read-out and setting: the same measure for `COc1ccc([C@H]2[C@@H](C(=O)O)c3ccccc3C(=O)N2c2ccc(OC)cc2)cc1` (relative stereo) [trans-6d, Sodium cis-2,3-bis(4-methoxyphenyl)-1-oxo-1,2,3,4-tetrahydroisoquinoline-4-carboxylate]: 7900 nM; for `COc1ccc(C2C(C(=O)Nc3cccc4c3CCCC4)c3ccccc3C(=O)N2c2ccc(OC)cc2)cc1` (stereo not drawn) [trans-7i, trans-2,3-Bis(4-methoxyphenyl)-1-oxo-N-(5,6,7,8-tetrahydronaphthalen-1-yl)-1,2,3,4-tetrahydroisoquinoline-4-carboxamide]: more than 100000 nM.

As for `Cc1cccc(NC(=O)C2c3ccccc3C(=O)N(c3ccccc3)C2c2ccccc2)n1` (stereo not drawn) [trans-7a, trans-N-(6-Methylpyridin-2-yl)-1-oxo-2,3-diphenyl-1,2,3,4-tetrahydroisoquinoline-4-carboxamide], the EC50 came out at 2300 nM.

Take `Cc1cc(C)cc(C2C(C(=O)Nc3cccc(C)n3)c3ccccc3C(=O)N2c2cc(C)cc(C)c2)c1` (stereo not drawn) [trans-7m, trans-2,3-Bis(3,5-dimethylphenyl)-N-(6-methylpyridin-2-yl)-1-oxo-1,2,3,4-tetrahydroisoquinoline-4-carboxamide]: the EC50 turned out to be 43000 nM.

`COc1ccc(C2C(C(=O)Nc3cccnc3)c3ccccc3C(=O)N2c2ccccc2)cc1` (stereo not drawn) [trans-7q, trans-3-(4-Methoxyphenyl)-1-oxo-2-phenyl-N-(pyridin-3-yl)-1,2,3,4-tetrahydroisoquinoline-4-carboxamide]: the EC50 stood at 570 nM.

In the case of `COc1ccc(C2C(C(=O)Nc3ccccn3)c3ccccc3C(=O)N2c2ccc(OC)cc2)cc1` (stereo not drawn) [trans-7f, trans-2,3-Bis(4-methoxyphenyl)-1-oxo-N-(pyridin-2-yl)-1,2,3,4-tetrahydroisoquinoline-4-carboxamide], the EC50 worked out at 530 nM. `COc1ccc(C2C(C(=O)Nc3cccc(C)n3)c3ccccc3C(=O)N2c2ccc(Oc3ccccc3)cc2)cc1` (stereo not drawn) [trans-7n, trans-3-(4-Methoxyphenyl)-N-(6-methylpyridin-2-yl)-1-oxo-2-(4-phenoxyphenyl)-1,2,3,4-tetrahydroisoquinoline-4-carboxamide]: the EC50 was more than 100000 nM. On the same count and under the same terms, then `Cc1cccc(NC(=O)C2c3ccccc3C(=O)N(c3ccc(O)cc3)C2c2ccc(O)cc2)n1` (stereo not drawn) [trans-7o, trans-2,3-Bis(4-hydroxyphenyl)-N-(6-methylpyridin-2-yl)-1-oxo-1,2,3,4-tetrahydroisoquinoline-4-carboxamide], with 30000 nM; and `Cc1cccc(NC(=O)C2c3ccccc3C(=O)N(c3ccc(Cl)cc3)C2c2ccc(Cl)cc2)n1` (stereo not drawn) [trans-7l, trans-2,3-Bis(4-chlorophenyl)-N-(6-methylpyridin-2-yl)-1-oxo-1,2,3,4-tetrahydroisoquinoline-4-carboxamide], with 2900 nM.

The same data set, now with this note: Homo sapiens, INA-6, 72 h, read-out: INA-6 EC50(±sdv).
For the compound `COc1ccc(N2C(=O)c3ccccc3[C@H](C(=O)O)[C@@H]2c2ccccc2)cc1` (relative stereo) [cis-6c, Sodium cis-2-(4-methoxyphenyl)-1-oxo-3-phenyl-1,2,3,4-tetrahydroisoquinoline-4-carboxylate], the EC50 is more than 100000 nM. Same read-out and setting: the same measure for `COc1ccc(C2C(C(=O)Nc3cccc(C)c3)c3ccccc3C(=O)N2c2ccc(OC)cc2)cc1` (stereo not drawn) [trans-7e, trans-2,3-Bis(4-methoxyphenyl)-1-oxo-N-(m-tolyl)-1,2,3,4-tetrahydroisoquinoline-4-carboxamide]: 880 nM; for `COc1ccc(N2C(=O)c3ccccc3[C@@H](C(=O)O)[C@@H]2c2ccccc2)cc1` (relative stereo) [trans-6c, Sodium trans-2-(4-methoxyphenyl)-1-oxo-3-phenyl-1,2,3,4-tetrahydroisoquinoline-4-carboxylate]: 64000 nM. Regarding `COc1ccc([C@H]2[C@H](C(=O)O)c3ccccc3C(=O)N2c2ccccc2)cc1` (relative stereo) [trans-6b, Sodium trans-3-(4-methoxyphenyl)-1-oxo-2-phenyl-1,2,3,4-tetrahydroisoquinoline-4-carboxylate], the EC50 came to 2000 nM.

Test system in a further data set: not given
Experiment: not given
Details: not given
The compound `O=C(O)[C@@H]1c2ccccc2C(=O)N(c2ccc(Cl)cc2)[C@H]1c1ccc(Cl)cc1` (relative stereo) [trans-5f, trans-2,3-Bis(4-chlorophenyl)-1-oxo-1,2,3,4-tetrahydroisoquinoline-4-carboxylic acid] returned a melting point of 116 to 127 °C.

As for `COc1ccc([C@H]2[C@H](C(=O)O)c3ccccc3C(=O)N2c2ccc(Oc3ccccc3)cc2)cc1` (relative stereo) [trans-5h, trans-3-(4-Methoxyphenyl)-1-oxo-2-(4-phenoxyphenyl)-1,2,3,4-tetrahydroisoquinoline-4-carboxylic acid], the melting point fell in the range of 109 to 115 °C. Still for that read-out and setting: the same measure for `O=C(O)[C@@H]1c2ccccc2C(=O)N(c2ccc(F)cc2)[C@H]1c1ccc(F)cc1` (relative stereo) [trans-5e, trans-2,3-Bis(4-fluorophenyl)-1-oxo-1,2,3,4-tetrahydroisoquinoline-4-carboxylic acid]: 116 to 118 °C.
